Measured values from patent US4916135A, “N-heteroaryl-4-quinolinamines” (priority 1989, dated 1990).
Structures can show the parent of a compound that is named as a salt. Where two headings read alike, the source gives them in different places.

Tests used:
[1] = system: 2-phenyl-1,4-benzoquinone-induced writhing; test: 2-phenyl-1,4-benzoquinone-induced writhing (PQW) test in mice (analgesic activity); format: in vivo; conditions: for inhibition in vivo at 20 mg/kg: Mus musculus, sc, read-out: PQW Percent inhibition
Protocol: Compounds I of the present invention are useful as analgesic agents due to their ability to alleviate pain in mammals. […] Exptl. Biol. Med., 95, 729 (1957)].
The results of some of the compounds of this invention (expressed in terms of percent inhibition at 20 mg/kg, s.c.) are shown in Table 1 along with that of a prior art compound.

[2] = system: Scopolamine Induced Memory Deficit; test: scopolamine-induced Dark Avoidance Assay; format: in vivo; conditions: s.c., mice, 24 hours
Protocol: In this assay mice are tested for their ability to remember an unpleasant stimulus for a period of 24 hours. A mouse is placed in a chamber that contains a dark compartment; a strong incandescent light drives it to the dark compartment, where an electric shock is administered through metal plates on the floor. The animal is removed from the testing apparatus and tested again, 24 hours later, for the ability to remember the electric shock.
If scopolamine, an anticholinergic that is known to cause memory impairment, is administered before an animal's initial exposure to the test chamber, the animal re-enters the dark compartment shortly after being placed in the test chamber 24 hours later. This effect of scopolamine is blocked by an active test compound, resulting in a greater interval before re-entry into the dark compartment.
The results for an active compound are expressed as the percent of a group of animals in which the effect of scopolamine is blocked, as manifested by an increased interval between being placed in the test chamber and re-entering the dark compartment.
Test results of scopolamine-induced Dark Avoidance Assay for representative compounds of this invention are presented in Table 2 along with that of a reference compound.

Row | Molecule | inhibition in vivo at 20 mg/kg ([1]; at 20 mg/kg, s.c., mice) [%] | also measured
1 | Clc1ccc2c(Nn3cccc3CN3CCCCC3)ccnc2c1 [7-Chloro-N-[2-(1-piperidinyl)methyl-1H-pyrrol-1-yl]-4-quinolinamine] | 35 | 
2 | CCCN(c1ccnc2ccccc12)n1cccc1 [N-Propyl-N-(1H-pyrrol-1-yl)-4-quinolinamine] | 33 | % of Animals with Scopolamine Induced Memory Deficit Reversal ([2]; 0.16 mg/kg of body weight): 33%
3 | CNC(=O)Oc1ccc2c(c1)[C@]1(C)CCN(C)[C@@H]1N2C [Physostigmine, reference compound] |  | % of Animals with Scopolamine Induced Memory Deficit Reversal ([2]; 0.31 mg/kg of body weight): 20%
4 | Propoxyphene [reference compound] |  | PQW Percent inhibition ([1]; at 3.9 mg/kg, s.c., mice, reference compound): 50%
5 | CCCN(c1ccnc2cc(Cl)ccc12)n1cccc1C=O [1-[(7-Chloro-4-quinolinyl)propylamino]-1H-pyrrole-2-carboxaldehyde] | 31 | 
6 | CCCN(c1ccnc2ccccc12)n1c2ccccc2c2ccccc21 [N-Propyl-N-(4-quinolinyl)-9H-carbazol-9-amine] | 55 | 
7 | CCCN(c1ccnc2cc(Cl)ccc12)n1ccc(C=O)c1 [1-[(7-Chloro-4-quinolinyl)propylamino]-1H-pyrrole-3-carboxaldehyde] | 42 | 
8 | c1ccc2c(c1)ccn2Nc1ccnc2ccccc12 [N-(1H-Indol-1-yl)-4-quinolinamine maleate] | 32 | 
9 | CCCN(c1ccnc2cc(Cl)ccc12)n1cccc1.O=C(O)/C=C\C(=O)O [7-Chloro-N-propyl-N-(1H-pyrrol-1-yl)-4-quinolinamine maleate] | 42 | % of Animals with Scopolamine Induced Memory Deficit Reversal ([2]; 0.31 mg/kg of body weight): 20%
10 | CCN(CC)Cc1cccn1Nc1ccnc2cc(Cl)ccc12 [7-Chloro-N-(2-diethylaminomethyl-1H-pyrrol-1-yl)-4-quinolinamine] | 55 | 
11 | Cl.FC(F)(F)c1ccc2c(Nn3cccc3)ccnc2c1 [N-(1H-Pyrrol-1-yl)-7-trifluoromethyl-4-quinolinamine hydrochloride] | 48 | % of Animals with Scopolamine Induced Memory Deficit Reversal ([2]; 1.25 mg/kg of body weight): 40%
12 | Cl.c1ccc2c(Nn3cccc3)ccnc2c1 [N-(1H-Pyrrol-1-yl)-4-quinolinamine hydrochloride] | 26 | % of Animals with Scopolamine Induced Memory Deficit Reversal ([2]; 0.16 mg/kg of body weight): 47%
13 | Cl.c1ccc2c(Nn3cccc3)c3c(nc2c1)CCCC3 [N-(1H-Pyrrol-1-yl)-1,2,3,4-tetrahydro-9-acridinamine hydrochloride] |  | % of Animals with Scopolamine Induced Memory Deficit Reversal ([2]; 0.63 mg/kg of body weight): 20%; inhibition in vivo at 20 mg/kg [1]: 43%
14 | Cc1cn(Nc2ccnc3ccccc23)c2ccccc12 [N-(3-Methyl-1H-indol-1-yl)-4-quinolinamine hydrochloride] | 44 | 
15 | c1ccc2c(Nn3c4ccccc4c4ccccc43)ccnc2c1 [N-(4-Quinolinyl)-9H-carbazol-9-amine hydrochloride] | 30 | 
16 | C#CCn1ccc(=Nn2cccc2)c2ccc(Cl)cc21 [7-Chloro-1-(2-propynyl)-N-(1H-pyrrol-1-yl)-4(1H)-quinolinimine] | 48 | 
17 | CCCN(c1c2c(nc3ccccc13)CCCC2)n1cc(C)c2ccccc21 [N-(3-Methyl-1H-indol-1-yl)-N-propyl-1,2,3,4-tetrahydro-9-acridinamine] | 42 | 
